Experimental data taken from patent US5610177A, “Acylated amino acids as endothelin antagonists” (Warner-Lambert Company, priority 1994, dated 1997).
Where two headings read alike, the source gives them in different places. Where no end group is shown, it is not given here.

Columns and labels:
[1] = target: T1, endothelin receptor of rabbit renal artery vascular smooth muscle cells (Oryctolagus cuniculus, UniProt A5A8K3); assay type: binding; conditions: [125I]-ET-1 25 pM, 37° C., 2 hours, read-out: IC50 ERBA-A
T1 sequence (A5A8K3 21-427): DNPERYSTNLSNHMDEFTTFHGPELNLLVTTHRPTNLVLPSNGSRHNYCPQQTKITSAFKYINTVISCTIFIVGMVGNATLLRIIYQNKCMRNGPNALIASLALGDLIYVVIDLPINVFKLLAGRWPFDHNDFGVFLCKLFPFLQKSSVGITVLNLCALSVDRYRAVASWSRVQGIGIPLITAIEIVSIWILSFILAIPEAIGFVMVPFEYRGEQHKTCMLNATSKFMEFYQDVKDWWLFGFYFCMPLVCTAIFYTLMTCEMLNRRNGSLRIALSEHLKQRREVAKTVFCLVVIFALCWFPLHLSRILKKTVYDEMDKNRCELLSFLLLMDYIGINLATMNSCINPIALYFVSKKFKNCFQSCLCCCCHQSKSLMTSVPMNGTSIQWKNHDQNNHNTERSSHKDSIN
Description: The compounds of Formula I are valuable antagonists of endothelin.

ETB receptors [2] = target: T2, ETB receptors (Homo sapiens, UniProt P24530); experiment: HERBA-B, [125I]-ET-1 binding to recombinant human ETB receptor expressed in CHO-K1 cell membranes; parameters: expressed in transfected cells; host or cells: CHO-K1 cells (membranes)
T2 sequence (P24530 27-442): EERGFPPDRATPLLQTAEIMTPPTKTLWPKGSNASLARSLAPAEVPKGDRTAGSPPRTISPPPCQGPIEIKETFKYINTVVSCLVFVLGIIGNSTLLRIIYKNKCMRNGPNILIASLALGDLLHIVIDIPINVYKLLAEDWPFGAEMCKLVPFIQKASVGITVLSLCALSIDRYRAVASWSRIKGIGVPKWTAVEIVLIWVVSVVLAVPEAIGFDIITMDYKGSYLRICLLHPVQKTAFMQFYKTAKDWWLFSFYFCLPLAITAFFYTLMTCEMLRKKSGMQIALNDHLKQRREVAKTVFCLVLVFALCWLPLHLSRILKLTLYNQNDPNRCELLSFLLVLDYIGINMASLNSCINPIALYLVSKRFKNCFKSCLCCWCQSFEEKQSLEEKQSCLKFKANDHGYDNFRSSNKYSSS
Description: The compounds of Formula I are valuable antagonists of endothelin. […] The above process has also been modified by using human recombinant CHO-K1 cells. […] The gene for human ETB receptor was cloned and inserted into the pRc-CMW expression vector, then transfected into CHO-K1 cells by electroporation. For binding assays, membranes (0.7 mg protein) of CHO-K1 cells expressing recombinant human ETB receptor were used.

ETA = conditions: cited from earlier work
ETA and ETB receptors [3] = conditions: cited from earlier work
[4] = target: T3, endothelin receptor of rat cerebellar membranes (Rattus norvegicus, UniProt P21451); experiment: Endothelin receptor binding assay-B (ERBA-B), [125I]-ET-1 binding in rat cerebellar membranes; conditions: [125I]-ET-1 25 pM, 37° C., 2 hours
T3 sequence (P21451 27-442): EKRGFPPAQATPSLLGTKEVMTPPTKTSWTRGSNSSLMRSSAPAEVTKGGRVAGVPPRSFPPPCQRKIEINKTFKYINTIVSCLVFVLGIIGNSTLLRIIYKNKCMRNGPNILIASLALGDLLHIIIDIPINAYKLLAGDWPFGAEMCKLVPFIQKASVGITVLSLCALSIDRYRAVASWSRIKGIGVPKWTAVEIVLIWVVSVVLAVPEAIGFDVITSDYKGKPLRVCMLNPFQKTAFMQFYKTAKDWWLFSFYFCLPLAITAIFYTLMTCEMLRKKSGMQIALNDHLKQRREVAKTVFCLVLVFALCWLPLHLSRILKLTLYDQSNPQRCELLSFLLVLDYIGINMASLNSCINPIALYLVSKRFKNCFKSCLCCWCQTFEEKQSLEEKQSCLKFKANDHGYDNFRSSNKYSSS
Description: The compounds of Formula I are valuable antagonists of endothelin. […] ENDOTHELIN RECEPTOR BINDING […]-1 BINDING IN RAT CEREBELLAR MEMBRANES […] Count filters for radioactivity in gamma counter.

ETB receptors [5] = target: T2, ETB receptors; experiment: AAR-B, inhibition of ET-3 stimulated arachidonic acid release in CHO cells expressing recombinant ETB receptors; assay type: cell-based; parameters: expressed in transfected cells; host or cells: Chinese hamster ovary (CHO) cells; conditions: ET-3 (1.0 nM) stimulated [3H]arachidonic acid release, read-out: IC50 AAR-B (Antagonist)
ETA and ETB receptors [6] = conditions: rats, cited from earlier work
ETA and ETB receptors [7] = conditions: rats, cited from earlier work; remark: listed apart in the source
ETA and ETB receptors [8] = conditions: orally administered; cited from earlier work
endothelin receptor = conditions: cited from earlier work
[9] = intracerebroventricular, rats; cited from earlier work
ETA receptor = conditions: intraperitoneal, rats; cited from earlier work
endothelin ETA receptor [10] = conditions: intracisternal, canine subarachnoid hemorrhage model; cited from earlier work
endothelin ETA receptor [11] = conditions: rats; cited from earlier work
ETB = conditions: isolated, endothelium-intact porcine pulmonary arteries; cited from earlier work

| Molecule | IC50 [1] [µM] | IC50 (ETB receptors [2]) [µM] | other results |
| --- | --- | --- | --- |
| CC(Cc1ccccc1)(NC(=O)C(Cc1cccc2ccccc12)Cc1cccc2ccccc12)C(=O)O (racemic) [Example 13, Bis-(1-naphthylmethyl)acetyl-(α-methyl-D, L-phenylalanine)] | 14 | 6.5 | – |
| CC(Cc1ccc(O)cc1)(NC(=O)C(Cc1cccc2ccccc12)Cc1cccc2ccccc12)C(=O)O (racemic) [Example 14, Bis-(1-naphthylmethyl)acetyl-(α-methyl-D, L-tyrosine)] | 25 | 18 | – |
| Cc1noc(NS(=O)(=O)c2cccc3c(N(C)C)cccc23)c1C [5-(Dimethylamino)-N-(3,4-dimethyl-5-isoxazolyl)-1-naphthalenesulfonamide] | – | – | oral antihypertensive effect (ETA): oral antihypertensive effect |
| Cc1noc(NS(=O)(=O)c2cccc3c(N(C)C)cccc23)c1C [BMS182874] | – | – | ETA/ETB receptor antagonism and selectivity (ETA and ETB receptors [3]): ETA specific antagonists |
| C[C@](Cc1c[nH]c2ccccc12)(NC(=O)C(Cc1cccc2ccccc12)Cc1cccc2ccccc12)C(=O)O [Example 1, Bis-(1-naphthylmethyl)acetyl-(α-methyl-D-tryptophan)] | 10 | 0.57 | IC50 [4]: 0.6 µM; IC50 (ETB receptors [5]): 2.5 µM |
| C[C@](Cc1c[nH]c2ccccc12)(NC(=O)C(Cc1ccc2c(c1)OCO2)Cc1ccc2c(c1)OCO2)C(=O)O [Example 2, Bis-(3,4-methylenedioxyphenylmethyl)acetyl-(α-methyl-D-tryptophan)] | > 25 | 1.6 | – |
| C[C@](Cc1c[nH]c2ccccc12)(NC(=O)C(Cc1ccc2ccccc2c1)Cc1ccc2ccccc2c1)C(=O)O [Example 3, Bis-(2-naphthylmethyl)acetyl-(α-methyl-D-tryptophan)] | > 25 | 16 | – |
| Cc1cccc(CC(Cc2cccc(C)c2C)C(=O)N[C@](C)(Cc2c[nH]c3ccccc23)C(=O)O)c1C [Example 4] | > 25 | 2.9 | – |
| C[C@](Cc1c[nH]c2ccccc12)(NC(=O)C(Cc1ccccc1)Cc1ccccc1)C(=O)O [Example 5, Di-benzylacetyl-(α-methyl-D-tryptophan)] | > 25 | 19 | – |
| C[C@](Cc1c[nH]c2ccccc12)(NC(=O)C(Cc1cccc2c1CCCC2)Cc1cccc2c1CCCC2)C(=O)O [Example 6, Bis-(5,6,7,8-tetrahydro-1-naphthylmethyl)acetyl-(α-methyl-D-tryptophan)] | 14 | 1.4 | – |
| C[C@](Cc1c[nH]c2ccccc12)(NC(=O)C(Cc1c(F)c(F)c(F)c(F)c1F)Cc1c(F)c(F)c(F)c(F)c1F)C(=O)O [Example 7, Bis-(2,3,4,5,6-pentafluorophenylmethyl)acetyl-(α-methyl-D-tryptophan)] | > 25 | 27 | – |
| C[C@@](Cc1c[nH]c2ccccc12)(NC(=O)C(Cc1cccc2ccccc12)Cc1cccc2ccccc12)C(=O)O [Example 8, Bis-(1-naphthylmethyl)acetyl-(α-methyl-L-tryptophan)] | > 30 | – | IC50 [4]: 17 µM |
| C[C@](Cc1c[nH]c2ccccc12)(NC(=O)C(Cc1ccccc1)Cc1cccc2ccccc12)C(=O)O (stereo partly drawn) [Example 9, 2-(1-Naphthylmethyl)-2-benzylacetyl-(α-methyl-D-tryptophan)] | 26 | 2.2 | IC50 (ETB receptors [5]): 6.6 µM |
| Cc1ccccc1CC(Cc1ccccc1C)C(=O)N[C@](C)(Cc1c[nH]c2ccccc12)C(=O)O [Example 10, Bis-(2-methylphenylmethyl)acetyl-(α-methyl-D-tryptophan)] | > 25 | 1.5 | IC50 (ETB receptors [5]): 9.5 µM |
| Cc1cccc(CC(Cc2cccc(C)c2)C(=O)N[C@](C)(Cc2c[nH]c3ccccc23)C(=O)O)c1 [Example 11, Bis-(3-methylphenylmethyl)acetyl-(α-methyl-D-tryptophan)] | > 25 | 4.7 | IC50 (ETB receptors [5]): 9.9 µM |
| CC(Cc1cccc2ccccc12)(Cc1cccc2ccccc12)C(=O)N[C@](C)(Cc1c[nH]c2ccccc12)C(=O)O [Example 12, Bis-2-(1-naphthylmethyl)-2-methylacetyl-(α-methyl-D-tryptophan)] | > 25 | 10 | – |
| C[C@](Cc1c[nH]c2ccccc12)(NCC(Cc1cccc2ccccc12)Cc1cccc2ccccc12)C(=O)O [Example 15, N-[2-bis-(1-naphthylmethyl)ethyl]-(α-methyl-D-tryptophan)] | 14 | 9.2 | – |
| C[C@](Cc1c[nH]c2ccccc12)(NC(=O)C(CC1CCCCC1)CC1CCCCC1)C(=O)O [Example 16, Bis-(cyclohexylmethyl)acetyl-(α-methyl-D-tryptophan)] | > 25 | 7.4 | – |
| COc1cccc(Oc2c(NS(=O)(=O)c3ccc(C(C)(C)C)cc3)ncnc2OCCO)c1 [Ro 46-2005] | – | – | ETA/ETB receptor antagonism and selectivity (ETA and ETB receptors [3]): non-selective ETA /ETB antagonists; effect in renal ischemia (ETA and ETB receptors [6]): protective effect for renal vasoconstriction after renal ischemia; effect in renal ischemia (ETA and ETB receptors [6]; listed as RO 46-2005): effective in models of acute renal ischemia; effect in subarachnoid hemorrhage (ETA and ETB receptors [7]): dramatically reduced cerebral vasoconstriction after subarachnoid hemorrhage; effect in subarachnoid hemorrhage (ETA and ETB receptors [7]; listed as RO 46-2005): effective in models of acute renal ischemia and subarachnoid hemorrhage in rats; antihypertensive effect (ETA and ETB receptors [8]): marked antihypertensive effect with a reasonably long duration |
| COc1ccccc1Oc1c(NS(=O)(=O)c2ccc(C(C)(C)C)cc2)nc(-c2ncccn2)nc1OCCO [Ro 47-0203] | – | – | ETA/ETB receptor antagonism and selectivity (ETA and ETB receptors [3]): non-selective ETA /ETB antagonists; blood brain barrier crossing (endothelin receptor; inferred from rabbit subarachnoid hemorrhage model): crosses the blood brain barrier; reversal of vasoconstriction (endothelin receptor; rabbit subarachnoid hemorrhage model): effective in a rabbit subarachnoid hemorrhage model in reversing vasoconstriction |
| Endothelin-1 (CSCSSLMDKECVYFCHLDIIW; not fully specified (bridges); cysteine pairing not given here; UniProt P05305 53-73, looked up) [ET-1] | – | – | behavioral effects [9]: evoke several behavioral effects |
| FR 139317 | – | – | ETA/ETB receptor antagonism and selectivity (ETA and ETB receptors [3]): potent endothelin ETA receptor antagonist; permeability to proteins, glomerular injury and renal function (ETA receptor): reduced abnormal permeability to proteins and limited glomerular injury and prevented renal function deterioration; vasoconstriction of the basilar artery (endothelin ETA receptor [10]): significantly reduced the vasoconstriction of the basilar artery; ET-1 induced arrhythmia (endothelin ETA receptor [11]): suppressed |
| N-Acetyl-ET [N-Acetyl-ET [10-21,11,15-Ala]] | – | – | vasorelaxation (ETB): caused vasorelaxation |
